The values below come from US8889638B2, “Stimulus-triggered prodrugs” (The Regents of the University of California, priority 2010, dated 2014).

Structures are written as SMILES. Values joined by “and” are separate entries in the source; they are usually repeats but may differ in a detail not shown here. Equal values may be shown once.

The target in experiment [1] is T1, MMP-8 (catalytic domain, human, recombinant) (Homo sapiens, UniProt P22894).
T1 construct: MMP-8 (catalytic domain, human, recombinant); purchased BIOMOL International
Put plainly: MMP-8 fluorescence-based inhibition assay with and without β-glucosidase. It counts as biochemical. The procedure: MMP-9 (catalytic domain, human, recombinant), MMP-8 (catalytic domain, human, recombinant), and the assay kit were purchased from BIOMOL International. The assays were carried out according to the procedure provided with the kit. MMP activity was measured in 96-well plates using a Bio-Tek Flx 800 fluorescent plate reader. The ZBGs and their protected analogs were dissolved in DMSO and diluted in HEPES buffer (50 mM, pH 7.5) to a concentration of 10 mM for 1-2, 40 mM for 3-4, and 1.25 mM for 5-6. Each well contained 20 μL, of MMP-9 (0.45 U/mL), inhibitor (10 μL, of 1-6), 5 μL, of β-glucosidase (1 U/μL) when used, and buffer for a total volume of 99 μL. These were incubated for 1 h at 37° C. […] The reaction was initiated by the addition of 1 μL (400 μM) of the fluorescent substrate (Mca-Pro-Leu-Gly-Leu-Dpa-Ala-Arg-NH2 where Mca=(7-methoxycoumarin-4-yl)-acetyl and Dpa=N-3-(2,4-dinitrophenyl)-L-α-β-diaminopropionyl)) and kinetic activity was measured every minute for 30 min with excitation and emission wavelengths at 335 nm and 405 nm, respectively. Enzyme activity with inhibitor was calculated with respect to the control experiment (no inhibitor present). […]
IC50 values were obtained for compounds 1-8 against MMP-9 and for compounds 7 and 8 against MMP-8. […] Enzyme activity with inhibitor was calculated with respect to the control experiment (no inhibitor present). […]

The next experiment deals with β-glucosidase. The experiment in a line: β-glucosidase cleavage of glucose-protected compounds (UV-Vis, HPLC, Km). It counts as biochemical, almonds. Conditions: 37° C. The procedure: Absorption spectra of compounds 1-8 were taken on a Perkin-Elmer Lambda 25 UV-visible spectrophotometer. To a 1.0 mL solution at 0.05-0.06 mM concentration in HEPES buffer (50 mM, pH 7.5) was added β-glucosidase (16 U for compounds 2, 4, and 6, and 100 U for compound 8). Spectra were monitored over time either at room temperature for compounds 1-7 or at 37° C. for compound 8.
To a 1.0 mL solution of 8 in HEPES buffer at 25 μM, 50 μM, 75 μM, 100 μM, and 200 μM was added 100 U of β-glucosidase. Spectra were monitored over 4 h at 37° C. The concentration of product formed, 1,2-HOPO-2 (7), was determined using the extinction coefficient for 7 calculated at 346 nm (4279±372 M-1 cm-1) and was plotted versus time (min). The initial velocity (ν) of each reaction was determined analyzing the linear slope of the first 50 min. The Km value was calculated from the Lineweaver-Burk plot (1/ν vs. 1/[8]) where −1/Km equals the x-intercept (FIG. 10).
Analytical HPLC was performed on a HP Series 1050 system equipped with a Vydac® C18 reverse phase column (218 TP, 250×4.6 mm, 5 μm). […] Retention times of compounds 1-8 were determined under identical HPLC conditions prior to evaluation of glucose cleavage of the protected compounds. […]

T1 sequence (P22894 100-262 limits assumed): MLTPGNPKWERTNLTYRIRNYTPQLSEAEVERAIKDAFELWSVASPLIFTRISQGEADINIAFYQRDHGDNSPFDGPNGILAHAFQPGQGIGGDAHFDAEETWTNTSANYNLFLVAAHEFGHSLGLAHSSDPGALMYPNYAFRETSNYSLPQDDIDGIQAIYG

Consider `O=C(NCc1ccc(-c2ccccc2)cc1)c1cccc(=O)n1O[C@@H]1O[C@H](CO)[C@@H](O)[C@H](O)[C@H]1O` [Compound 8, N-(Biphenyl-4-ylmethyl)-6-oxo-1-(β-D-glucopyranosyloxy)-1,6-dihydropyridine-2-carboxamide], for which the inhibition at 0.15 µM in experiment [1] (150 nM, read-out: inhibition of MMP-8 after activation with β-glucosidase) turned out to be 33%. Moreover, the “increase in activity upon enzymatic activation” value in experiment [1] (MMP-8, with vs without β-glucosidase) was over 1000 fold. Besides, the Km with β-glucosidase (100 U β-glucosidase, Lineweaver-Burk plot) was ~210 µM and 210 µM. Moreover, in the experiment with β-glucosidase (β-glucosidase), the “time required for complete conversion of 8 to 7” value is about 4 h.

As a reminder, the inhibition is the relative decrease from the control value, in per cent. In general, Km refers to the substrate concentration at which the rate is half of its maximum.
